Measurements as given in patent publication US10875837B2, “Inhibitors of the fibroblast growth factor receptor” (BLUEPRINT MEDICINES CORPORATION, priority 2013, dated 2020).

Target: T1, wild type FGFR-4 (Homo sapiens, UniProt P22455)
T1 construct: purchased Carna Biosciences, Inc
Assay: FGFR-4 wild type assay at Km (Caliper electrophoretic mobility shift)
Assay type: biochemical
Conditions: wild type FGFR-4, 400 uM ATP, 25 C, 90 minutes; read-out: INH-FGFR4
Protocol: Biochemical Activity Assessment In order to assess the activity of chemical compounds against the relevant kinase of interest, the Caliper LifeSciences electrophoretic mobility shift technology platform is utilized. Fluorescently labeled substrate peptide is incubated in the presence dosed levels of compounds, a set concentration of kinase and of ATP, so that a reflective proportion of the peptide is phosphorylated. At the end of the reaction, the mix of phosphorylated (product) and non-phosphorylated (substrate) peptides are passed through the microfluidic system of the Caliper LabChip® EZ Reader II, under an applied potential difference. The presence of the phosphate group on the product peptide provides a difference in mass and charge between the product peptide and the substrate peptide, resulting in a separation of the substrate and product pools in the sample. As the pools pass the LEDS within the instrument, these pools are detected and resolved as separate peaks. The ratio between these peaks therefore reflects the activity of the chemical matter at that concentration in that well, under those conditions.
FGFR-4 wild type assay at Km: In each well of a 384-well plate, 0.5 ng/ul of wild type FGFR-4 (Carna Biosciences, Inc.) was incubated in a total of 12.5 ul of buffer (100 mM HEPES pH 7.5, 0.015% Brij 35, 10 mM MgCl2, 1 mM DTT) with 1 uM CSKtide (5-FAM-KKKKEEIYFFFG-NH2) and 400 uM ATP at 25 C for 90 minutes in the presence or absence of a dosed concentration series of compound (1% DMSO final concentration). The reaction was stopped by the addition of 70 ul of Stop buffer (100 mM HEPES pH 7.5, 0.015% Brij 35, 35 mM EDTA and 0.2% of Coating Reagent 3 (Caliper Lifesciences)). The plate was then read on a Caliper LabChip® EZ Reader II (protocol settings: −1.9 psi, upstream voltage −700, downstream voltage −3000, post sample sip 35 s).

T1 sequence (P22455 22-802): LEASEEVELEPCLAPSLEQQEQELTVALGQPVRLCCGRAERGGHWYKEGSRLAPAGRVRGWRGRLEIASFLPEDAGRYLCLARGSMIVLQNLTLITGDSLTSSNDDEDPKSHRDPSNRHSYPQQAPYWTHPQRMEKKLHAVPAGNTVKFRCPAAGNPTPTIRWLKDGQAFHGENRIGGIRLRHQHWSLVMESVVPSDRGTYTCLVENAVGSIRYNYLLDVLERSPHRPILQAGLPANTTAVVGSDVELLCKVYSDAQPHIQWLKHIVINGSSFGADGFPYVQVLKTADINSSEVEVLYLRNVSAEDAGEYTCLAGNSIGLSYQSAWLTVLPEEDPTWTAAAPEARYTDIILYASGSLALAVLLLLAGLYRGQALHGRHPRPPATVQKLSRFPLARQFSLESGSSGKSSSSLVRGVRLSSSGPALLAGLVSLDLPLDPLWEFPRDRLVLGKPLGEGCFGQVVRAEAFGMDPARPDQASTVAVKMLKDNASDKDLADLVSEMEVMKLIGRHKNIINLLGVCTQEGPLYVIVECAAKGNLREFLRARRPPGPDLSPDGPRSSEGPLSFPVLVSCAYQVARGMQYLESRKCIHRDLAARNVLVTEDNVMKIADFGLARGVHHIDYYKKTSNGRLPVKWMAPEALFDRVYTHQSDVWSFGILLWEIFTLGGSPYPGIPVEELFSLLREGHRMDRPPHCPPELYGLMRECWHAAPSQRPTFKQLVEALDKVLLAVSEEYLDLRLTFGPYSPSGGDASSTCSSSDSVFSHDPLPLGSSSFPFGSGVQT

| IC50 | Compound |
| --- | --- |
| 100 to 1000 nM | C=CC(=O)N[C@H]1CC[C@H](C(N)=O)C[C@H]1Nc1ncc2cc(-c3c(Cl)c(OC)cc(OC)c3Cl)ccc2n1 (racemic) [Compound 72] |
| 100 to 1000 nM | C=CC(=O)N[C@H]1C[C@H](C(=O)N(C)C)CC[C@H]1Nc1ncc2cc(-c3c(Cl)c(OC)cc(OC)c3Cl)ccc2n1 (racemic) [Compound 87] |
| > 1000 nM | C#CC(=O)N[C@H]1CCC[C@H]1Nc1ncc2cc(-c3cccnc3)ccc2n1 [Compound 1] |
| 10 to 100 nM | C#CC(=O)N[C@H]1CCC[C@H]1Nc1ncc2cc(-c3c(F)ccc(OC)c3F)ccc2n1 [Compound 2, N-((1S,2R)-2-((6-(2,6-difluoro-3-methoxyphenyl)quinazolin-2-yl)amino)cyclopentyl)propiolamide] |
| 100 to 1000 nM | C#CC(=O)N[C@H]1CCC[C@H]1Nc1ncc2cc(-c3cc(C(N)=O)ccc3Cl)ccc2n1 [Compound 3] |
| 10 to 100 nM | C#CC(=O)N[C@H]1CCC[C@H]1Nc1ncc2cc(-c3c(Cl)ccc(OC)c3F)ccc2n1 [Compound 4] |
| 10 to 100 nM | C#CC(=O)N[C@H]1CCC[C@H]1Nc1ncc2cc(-c3c(Cl)ccc(OC)c3Cl)ccc2n1 [Compound 5] |
| 100 to 1000 nM | C#CC(=O)N[C@H]1CCC[C@H]1Nc1ncc2cc(-c3c(F)ccc(OCC)c3Cl)ccc2n1 [Compound 6, N-((1S,2R)-2-((6-(2-chloro-3-ethoxy-6-fluorophenyl)quinazolin-2-yl)amino)cyclopentyl)propiolamide] |
| 10 to 100 nM | C#CC(=O)N[C@H]1CCC[C@H]1Nc1ncc2cc(-c3cc(C(=O)NC4CC4)ccc3C)ccc2n1 [Compound 7] |
| 10 to 100 nM | C=CC(=O)N[C@H]1COCC1Nc1ncc2cc(-c3cc(OC)cc(OC)c3Cl)ccc2n1 (stereo partly shown) [Compound 8] |
| 100 to 1000 nM | C=CC(=O)N[C@H]1CCC[C@H]1Nc1ncc2cc(-c3cc(C(=O)NC4CC4)ccc3C)ccc2n1 [Compound 9] |
| > 1000 nM | C#CC(=O)N[C@H]1CCC[C@H]1Nc1ncc2cc(-c3cc(OC)cc(C(=O)NCC)c3)ccc2n1 [Compound 10] |
| 10 to 100 nM | C#CC(=O)N[C@H]1CCC[C@H]1Nc1ncc2cc(-c3cc(C(=O)NCC)ccc3Cl)ccc2n1 [Compound 11] |
| < 10 nM | C#CC(=O)N[C@H]1CCC[C@H]1Nc1ncc2cc(-c3cc(C(=O)NOC)ccc3Cl)ccc2n1 [Compound 12] |
| 10 to 100 nM | C#CC(=O)NC1CCC1Nc1ncc2cc(-c3c(Cl)c(OC)cc(OC)c3Cl)ccc2n1 (stereo not shown) [Compound 14] |
| 100 to 1000 nM | C=CC(=O)NC1CCC1Nc1ncc2cc(-c3c(Cl)c(OC)cc(OC)c3Cl)ccc2n1 (stereo not shown) [Compound 15] |
| 10 to 100 nM | C#CC(=O)N[C@H]1CCC[C@H]1Nc1ncc2cc(-c3cc(C(=O)NC4CC4)ccc3Cl)ccc2n1 [Compound 16] |
| > 1000 nM | CCC(=O)N[C@H]1CCC[C@H]1Nc1ncc2cc(-c3cc(C(=O)NC4CC4)ccc3Cl)ccc2n1 [Compound 17] |
| > 1000 nM | C#CC(=O)N[C@H]1CCC[C@H]1Nc1ncc2cc(-c3cc(S(=O)(=O)N(C)C)ccc3C)ccc2n1 [Compound 18] |
| 10 to 100 nM | C#CC(=O)N[C@H]1CCC[C@H]1Nc1ncc2cc(-c3cc(C(=O)NOC)c(F)cc3Cl)ccc2n1 [Compound 19] |
| < 10 nM | C#CC(=O)N[C@H]1CCC[C@H]1Nc1ncc2cc(-c3c(Cl)c(OC)cc(OC)c3Cl)ccc2n1 [Compound 20] |
| > 1000 nM | C=CC(=O)N[C@@H]1CCC[C@H]1Nc1ncc2cc(-c3c(Cl)c(OC)cc(OC)c3Cl)ccc2n1 [Compound 21] |
| 100 to 1000 nM | C=CC(=O)N[C@H]1CCC[C@@H]1Nc1ncc2cc(-c3c(Cl)c(OC)cc(OC)c3Cl)ccc2n1 [Compound 22] |
| 100 to 1000 nM | C=CC(=O)N[C@@H]1CCC[C@@H]1Nc1ncc2cc(-c3c(Cl)c(OC)cc(OC)c3Cl)ccc2n1 [Compound 23] |
| 10 to 100 nM | C=CC(=O)NC1CNCC1Nc1ncc2cc(-c3c(Cl)c(OC)cc(OC)c3Cl)ccc2n1 (stereo not shown) [Compound 25] |
| 10 to 100 nM | C#CC(=O)N[C@H]1CCC[C@H]1Nc1ncc2cc(-c3cc(C(=O)NC4CC4)c(F)cc3Cl)ccc2n1 [Compound 30] |
| < 10 nM | C#CC(=O)N[C@H]1CCCC[C@H]1Nc1ncc2cc(-c3c(Cl)c(OC)cc(OC)c3Cl)ccc2n1 [Compound 31] |
| 10 to 100 nM | C=CC(=O)N[C@H]1CC(=O)C[C@H]1Nc1ncc2cc(-c3c(Cl)c(OC)cc(OC)c3Cl)ccc2n1 [Compound 33] |

| IC50 | Compound |
| --- | --- |
| > 1000 nM | C=CC(=O)N[C@@H]1CCCC[C@@H]1Nc1ncc2cc(-c3c(Cl)c(OC)cc(OC)c3Cl)ccc2n1 [Compound 35] |
| > 1000 nM | C=CC(=O)N[C@H]1CCCC[C@@H]1Nc1ncc2cc(-c3c(Cl)c(OC)cc(OC)c3Cl)ccc2n1 [Compound 36, N-((1S,2S)-2-((6-(2,6-dichloro-3,5-dimethoxyphenyl)quinazolin-2-yl)amino)cyclohexyl)acrylamide] |
| > 1000 nM | C=CC(=O)N[C@@H]1CCCC[C@H]1Nc1ncc2cc(-c3c(Cl)c(OC)cc(OC)c3Cl)ccc2n1 [Compound 37] |
| 100 to 1000 nM | C=CC(=O)N[C@H]1CCNC[C@H]1Nc1ncc2cc(-c3c(Cl)c(OC)cc(OC)c3Cl)ccc2n1 [Compound 38] |
| > 1000 nM | C=CC(=O)N[C@@H]1CCNC[C@@H]1Nc1ncc2cc(-c3c(Cl)c(OC)cc(OC)c3Cl)ccc2n1 [Compound 39] |
| 10 to 100 nM | C=CC(=O)N[C@H]1C[C@@H](O)C[C@H]1Nc1ncc2cc(-c3c(Cl)c(OC)cc(OC)c3Cl)ccc2n1 [Compound 42] |
| 100 to 1000 nM | C=CC(=O)N[C@@H]1CCOC[C@@H]1Nc1ncc2cc(-c3c(Cl)c(OC)cc(OC)c3Cl)ccc2n1 [Compound 43] |
| > 1000 nM | CC#CC(=O)N[C@H]1CCCC[C@H]1Nc1ncc2cc(-c3c(Cl)c(OC)cc(OC)c3Cl)ccc2n1 [Compound 47] |
| < 10 nM | C#CC(=O)N[C@H]1CCC[C@H]1Nc1ncc2cc(-c3c(Cl)c(OC)cc(OC)c3Cl)cc(OC)c2n1 [Compound 48] |
| < 10 nM | C#CC(=O)N[C@H]1CCC[C@H]1Nc1cc2c(cn1)cc(-c1c(Cl)c(OC)cc(OC)c1Cl)c(=O)n2C [Compound 49] |
| 10 to 100 nM | C=CC(=O)N[C@H]1CCOC[C@H]1Nc1ncc2c(F)c(-c3c(Cl)c(OC)cc(OC)c3Cl)ccc2n1 [Compound 50] |
| 10 to 100 nM | C=CC(=O)N[C@H]1CCC[C@H]1Nc1ncc2cc(-c3c(Cl)c(OC)cc(OC)c3Cl)cc(Cl)c2n1 [Compound 53] |
| 100 to 1000 nM | C=CC(=O)N[C@@H]1CN(C(C)=O)C[C@@H]1Nc1ncc2cc(-c3c(Cl)c(OC)cc(OC)c3Cl)ccc2n1 [Compound 57] |
| 100 to 1000 nM | C=CC(=O)N[C@@H]1CC(C)(C)OC[C@@H]1Nc1ncc2cc(-c3c(Cl)c(OC)cc(OC)c3Cl)ccc2n1 [Compound 59] |
| > 1000 nM | C=CC(=O)N[C@H]1CC(C)(C)OC[C@H]1Nc1ncc2cc(-c3c(Cl)c(OC)cc(OC)c3Cl)ccc2n1 [Compound 60] |
| 100 to 1000 nM | C#CC(=O)N[C@H]1Cc2ccccc2[C@H]1Nc1ncc2cc(-c3c(Cl)c(OC)cc(OC)c3Cl)ccc2n1 [Compound 65] |
| 10 to 100 nM | C=CS(=O)(=O)N[C@H]1CCCC[C@H]1Nc1ncc2cc(-c3c(Cl)c(OC)cc(OC)c3Cl)ccc2n1 [Compound 66] |
| < 10 nM | C=CC(=O)N[C@H]1CCOC[C@H]1Nc1ncc2cc(-c3c(Cl)c(OC)cc(OC)c3Cl)cc(Cl)c2n1 [Compound 67] |
| < 10 nM | C#CC(=O)N[C@H]1CCCC[C@H]1Nc1cc2c(cn1)cc(-c1c(Cl)c(OC)cc(OC)c1Cl)c(=O)n2CC [Compound 68] |
| 100 to 1000 nM | C=CC(=O)N[C@@H]1CCN(C(C)=O)C[C@@H]1Nc1ncc2cc(-c3c(Cl)c(OC)cc(OC)c3Cl)ccc2n1 [Compound 69] |
| 100 to 1000 nM | C=CC(=O)N[C@H]1CCN(C(C)=O)C[C@H]1Nc1ncc2cc(-c3c(Cl)c(OC)cc(OC)c3Cl)ccc2n1 [Compound 70] |
| 10 to 100 nM | C=CC(=O)NC1CN(C(C)=O)CCC1Nc1ncc2cc(-c3c(Cl)c(OC)cc(OC)c3Cl)ccc2n1 (stereo not shown) [Compound 71] |
| 10 to 100 nM | C=CC(=O)N[C@H]1C[C@@H](C(=O)OC)C[C@H]1Nc1ncc2cc(-c3c(Cl)c(OC)cc(OC)c3Cl)ccc2n1 [Compound 73] |
| 100 to 1000 nM | C=CC(=O)N[C@H]1CCCC[C@H]1Nc1ncc2nc(-c3c(Cl)c(OC)cc(OC)c3Cl)c(=O)n(CC)c2n1 [Compound 78] |
| 10 to 100 nM | C=CC(=O)NC1CCS(=O)(=O)CC1Nc1ncc2cc(-c3c(Cl)c(OC)cc(OC)c3Cl)ccc2n1 (stereo not shown) [Compound 79] |
| 10 to 100 nM | C=CC(=O)N[C@H]1C[C@@H](C(=O)N(C)C)C[C@H]1Nc1ncc2cc(-c3c(Cl)c(OC)cc(OC)c3Cl)ccc2n1 [Compound 81, (1 S,3S,4R)-3-acrylamido-4-((6-(2,6-dichloro-3,5-dimethoxyphenyl)quinazolin-2-yl)amino)-N,N-dimethylcyclopentanecarboxamide] |
| > 1000 nM | C=CC(=O)N[C@H]1C[C@H](C(=O)N(C)C)C[C@H]1Nc1ncc2cc(-c3c(Cl)c(OC)cc(OC)c3Cl)ccc2n1 [Compound 82, (1R,3S,4R)-3-acrylamido-4-((6-(2,6-dichloro-3,5-dimethoxyphenyl)quinazolin-2-yl)amino)-N,N-dimethylcyclopentane-1-carboxamide] |
